According to patent US20060094661A1, “NY-ESO-1 peptide analogs” (priority 2004, published 2006):
Where a SMILES comes first, the peptide text is derived from it. [ ]: non-standard residue; d: D form. Nva = CCC[C@H](N)C(=O)O

How the values were obtained:
HLA-A*0201 = HLA-A*0201 (Homo sapiens, UniProt P04439, D140Y/D185E/D98H/E176V/E277Q/G131W/G231S/I119V/I121R/I166T/I218V/L300P/L318F/N151K/N90K/P208A/P217A/Q86G/Q94H/R138H/R169H/T345S); assay: ED50 (M)
Text: Table printed on a drawing sheet, Figure 27B
Head of the field: ED50 (M)

[1] = tested on: T cell lines specific for the native epitope (PRAME425-433); assay: Cross reactivity of PRAME425-433 analogs: IFN-γ secretion from T cell line specific for native epitope; type: cell-based; details: analog peptide at approximately 0.3 μM; normalized to native peptide
Description: At 7 days after the last boost, the mice were sacrificed and a suspension of splenocytes prepared at 5×10^6 […] cells/ml in complete HL-1 medium. Cells were incubated with different concentrations of peptide for 48 hours in flat-bottomed 96-well plates (200 ul/well) and for an additional 24 hours with rIL-2 at 10 U/ml added to the wells. The supernatant was harvested and the concentration of IFN-gamma assessed by standard methods such as ELISA. […] The observed affinities of the analogs are reported as % binding (compared to the positive control) and ED50s. Stability of binding as half time of dissociation. Cross reactivity with the native epitope was assessed by using the analog peptides to stimulate IFG-gamma secretion from a T cell lines specific for the native epitope, essentially as described in Example 6. The data shown in FIGS. 26-28 were generated by stimulating with analog peptide at approximately 0.3 μM. […] In some cases the reported values are the average of two determinations.

EC50 (HLA-A*0201)	Molecule	IFN-γ elicited, of that of the native peptide [1]
2940 nM	CCC[C@H](NC(=O)CNC(=O)[C@@H](NC(=O)[C@H](CC(C)C)NC(=O)[C@H](Cc1c[nH]cn1)NC(=O)[C@H](CCC(N)=O)NC(=O)[C@H](CC(C)C)NC(=O)[C@H](CCC)NC(=O)[C@@H](N)CO)[C@@H](C)CC)C(=O)O [50 | Prame 425-433 (L426(Nva),L433(Nva)), S(Nva)LQHLIG(Nva)] (H-S[Nva]LQHLIG[Nva]-OH; N-terminus and C-terminus assumed)	
688 nM	CCC[C@H](NC(=O)CNC(=O)[C@@H](NC(=O)[C@H](CC(C)C)NC(=O)[C@H](Cc1c[nH]cn1)NC(=O)[C@H](CCC(N)=O)NC(=O)[C@H](CC(C)C)NC(=O)[C@H](CCSC)NC(=O)[C@@H](N)CO)[C@@H](C)CC)C(=O)O [56 | Prame 425-433 (L426M,L433(Nva))] (H-SMLQHLIG[Nva]-OH; N-terminus and C-terminus assumed)	
	Lys P1 analog: PRAME425-433 analog with Lys for the Ser at the P1 position (KLLQHLIGL)	40%
